Where two headings read alike, the source gives them in different places. Where a SMILES comes first, the peptide text is derived from it. [ ]: non-standard residue; d: D form. The star is where a group is joined. Sta = CC(C)C[C@H](N)[C@@H](O)CC(=O)O; Isovaleryl = CC(C)CC(=O)*
What was measured:
[1] = tested on: protease(s) found in the Photorhabdus broth; assay type: biochemical, Photorhabdus luminescens; settings: for Corrected Flu. Units (Fluorescence Units - background) / Percent Inhibition relative to protease activity at pH 8.0: pH 8
Description: Protease Inhibition and Classification Assays: Protease assays were performed using FITC-casein dissolved in water as substrate (0.08% final assay concentration). Proteolysis reactions were performed at 25° C. for 1 h in the appropriate buffer with 25 μl of Photorhabdus broth (150 μl total reaction volume). Samples were also assayed in the presence and absence of dithiothreitol. After incubation, an equal volume of 12% trichloroacetic acid was added to precipitate undigested protein. Following precipitation for 0.5 h and subsequent centrifugation, 100 μl of the supernatant was placed into a 96-well microtiter plate and the pH of the solution was adjusted by addition of an equal volume of 4N NaOH. Proteolysis was then quantitated using a Fluoroskan II fluorometric plate reader at excitation and emission wavelengths of 485 and 538 nm, respectively. Protease activity was tested over a range from pH 5.0-10.0 in 0.5 units increments. The following buffers were used at 50 mM final concentration: sodium acetate (pH 5.0-6.5); Tris-HCL (pH 7.0-8.0); and bis-Tris propane (pH 8.5-10.0). […] The protease inhibitors used included E-64 (L-trans-expoxysaccinylleucylamido[4-,-guanidino]-butane), 3,4 dichloroisocoumarin, Leupeptin, pepstatin, amastatin, ethylenediaminetetraacetic acid (EDTA) and 1,10 phenanthroline.

58 kDa protease = assay: Inhibition of purified 58 kDa protease; assay type: biochemical, Photorhabdus luminescens
Description: (§1) Activity assays of the different proteases in W-14 day three culture broth were performed using FITC-casein dissolved in water as substrate (0.02% final assay concentration). Proteolysis experiments were performed at 37° C. for 0-0.5 h in 0.1M Tris-HCl (pH 8.0) with different protein fractions in a total volume of 0.15 ml. Reactions were terminated by addition of an equal volume of 12% trichloroacetic acid (TCA) dissolved in water. After incubation at room temperature for 0.25 h, samples were centrifuged at […] for 0.25 h and 0.10 ml aliquots were removed and placed into 96-well microtiter plates. The solution was then neutralized by the addition of an equal volume of 2 N sodium hydroxide, followed by quantitation using a Fluoroskan II fluorometric plate reader with excitation and emission wavelengths of 485 and 538 nm, respectively. Activity measurements were performed using FITC-Casein with different protease concentrations at 37° C. for 0-10 min. A unit of activity was arbitrarily defined as the amount of enzyme needed to produce 1000 fluorescent units/min and specific activity was defined as units/mg of protease.
(§2) Inhibition studies were performed using two zinc-metalloprotease inhibitors; 1,10 phenanthroline and N-(a-rhamnopyranosyloxyhydroxyphosphinyl)-Leu-Trp(phosphoramidon) with stock solutions of the inhibitors dissolved in 100% ethanol and water, respectively. […]

41/38 kDa protease = assay: Inhibition of purified 41/38 kDa protease; assay type: biochemical, Photorhabdus luminescens
Description: as §1, §2

[2] = tested on: protease activity of three day W-14 crude broth; assay: FITC-casein protease assay, three day W-14 crude broth; assay type: biochemical, Photorhabdus luminescens; settings: inhibitor 0.5-1.0 mg/ml per reaction
Description: as §1, §2

[3] = tested on: neonate Diabrotica undecimpunctata howardi (Southern corn rootworm, SCR); assay: SCR bioassay on artificial diet (Example 13; used in Examples 14-16); assay type: in vivo
[4] = inhibitor 0.5 μg/μl final concentration, Day 1 production broth

Compound: O[C@H](CS)[C@H](O)CS (racemic) [DTT, dithiothreitol]
- effect on protease activity ([1]; samples assayed in presence and absence of dithiothreitol): did not have any effect

Compound: CC(C)C[C@H](NC(=O)[C@H]1O[C@@H]1C(=O)O)C(=O)NCCCCN=C(N)N (relative stereo) [Strain E-64, L-trans-expoxysaccinylleucylamido[4-,-guanidino]-butane]
- Corrected Flu. Units (Fluorescence Units - background) [1]: 14259 Fluorescence Units
- Percent Inhibition relative to protease activity at pH 8.0 [1]: 0%

Compound: c1cnc2c(c1)ccc1cccnc12 [1,10 Phenanthroline, 1,10 phenanthroline]
- inhibition of purified 58 kDa protease (58 kDa protease): completely inhibited
- inhibition of purified 41/38 kDa protease (41/38 kDa protease): completely inhibited
- effect on protease activity of three day W-14 crude broth [2]: complete elimination of all protease activity
- inhibition of all protease activity of crude broth ([1]; final concentration of 50 μg): complete inhibition
- IC50 ([1]; in 100 μl of a 2 mg/ml crude broth solution): 5 µg
- Corrected Flu. Units (Fluorescence Units - background) [1, 4]: 15 Fluorescence Units
- Percent Inhibition relative to protease activity at pH 8.0 [1, 4]: 99%

Compound: O=c1oc(Cl)c(Cl)c2ccccc12 [3,4 Dichloroisocoumarin, 3,4 dichloroisocoumarin]
- Corrected Flu. Units (Fluorescence Units - background) [1, 4]: 7956 Fluorescence Units
- Percent Inhibition relative to protease activity at pH 8.0 [1, 4]: 39%

Compound: CC(C)C[C@@H](N)[C@H](O)C(=O)N[C@H](C(=O)N[C@H](C(=O)N[C@@H](CC(=O)O)C(=O)O)C(C)C)C(C)C [Amastatin, amastatin]
- Corrected Flu. Units (Fluorescence Units - background) [1, 4]: 12474 Fluorescence Units
- Percent Inhibition relative to protease activity at pH 8.0 [1, 4]: 4%

Compound: CC(=O)N[C@@H](CC(C)C)C(=O)N[C@@H](CC(C)C)C(=O)N[C@H](C=O)CCCNC(=N)N [Leupeptin]
- Corrected Flu. Units (Fluorescence Units - background) [1, 4]: 13074 Fluorescence Units
- Percent Inhibition relative to protease activity at pH 8.0 [1, 4]: 0%

Compound: CC(C)CC(=O)N[C@H](C(=O)N[C@H](C(=O)N[C@@H](CC(C)C)[C@@H](O)CC(=O)N[C@@H](C)C(=O)N[C@@H](CC(C)C)[C@@H](O)CC(=O)O)C(C)C)C(C)C [Pepstatin, pepstatin] (Isovaleryl-VV[Sta]A[Sta]-OH)
- Corrected Flu. Units (Fluorescence Units - background) [1, 4]: 13441 Fluorescence Units
- Percent Inhibition relative to protease activity at pH 8.0 [1, 4]: 0%

Compound: CC(C)C[C@H](NP(=O)(O)O[C@@H]1O[C@@H](C)[C@H](O)[C@@H](O)[C@H]1O)C(=O)N[C@@H](Cc1c[nH]c2ccccc12)C(=O)O [phosphoramidon, N-(a-rhamnopyranosyloxyhydroxyphosphinyl)-Leu-Trp]
- inhibition of purified 58 kDa protease (58 kDa protease): insensitive
- inhibition of purified 41/38 kDa protease (41/38 kDa protease): inhibited
- reduction of protease activity of three day W-14 crude broth ([2]; not further reduced with additional inhibitor): about 56%

Compound: TcbA: peptide TcbA, SEQ ID NO:12; in Table 24 bioassay lines the TcbA-enriched toxin B complex fraction of W-14 broth
- SCR Weight (mg/insect), average weight of live insect after 5 days on diet ([3]; 38 kDa protease treatment): 0.1 mg/insect
- LD50 (μg protein) ([3]; 38 kDa protease treatment, 37° C., 90 min): 0.52 μg protein
- LD50 (μg protein) ([3]; Control (protease omitted)): 2.1 μg protein
- SCR Weight (mg/insect), average weight of live insect after 5 days on diet ([3]; Control (protease omitted)): 0.2 mg/insect
- fold increase of SCR insecticidal activity by 38 kDa protease treatment ([3]; comparison of activity in several dilutions): 3 to 4 fold

Compound: toxin A: 860 kDa complex purified from activity peak A; major peptides TcdAii and TcdAiii
- activity against Southern corn root worm ([3]; in vivo): active

Compound: toxin B: 860 kDa complex purified from activity peak B; major peptides TcbAii and TcbAiii (or intact TcbA)
- LD50 against SCR after SCR gut content treatment ([3]; 40 μg toxin with 50 μl SCR gut content, 37° C. overnight): about 70 ng
- fold increase of SCR activity by SCR gut content treatment ([3]; LD50 treated against untreated): 10 fold
- LD50 against SCR ([3]; in vivo): around 700 ng
- activity against Southern corn root worm ([3]; in vivo): active
- toxin activity after protease K treatment ([3]; separate experiment): completely eliminated toxin activity
